Experimental data: patent US20180298405A1, “METHODS AND COMPOSITIONS TO INCREASE HUMAN SOMATIC CELL NUCLEAR TRANSFER (SCNT) EFFICIENCY BY REMOVING HISTONE H3-LYSINE TRIMETHYLATION, AND DERIVATION OF HUMAN NT-ESC” (CHILDREN'S MEDICAL CENTER CORPORATION, priority 2015, published 2018)
Values joined by “and” are separate entries in the source; they are usually repeats but may differ in a detail not shown here. Identical values can stand only once.

Columns and labels:
mouse SCNT embryos = assay: Preimplantation development of KDM4A-assisted mouse SCNT embryos; format: cell-based; conditions: cumulus donor cells, mRNA injected at 5-6 hpa; for % blast per 2-cell ± SD: blastocyst stage
Method: B6D2F1/J (BDF1) mice were produced by crossing C57BL/6J females with DBA/2J males, and were used for the collection of both oocyte and somatic nuclear donor for SCNT. All animal experiments were approved by the Institutional Animal Care and Use Committee of Harvard Medical School.
In vitro transcription was performed as described previously (Matoba et al., 2014). Briefly, full length human KDM4A/JHDM3A cDNA was cloned into a pcDNA3.1 plasmid containing poly(A)83 at the 3′ end of cloning site. The catalytic defective mutant form of KDM4A (H188A) was generated using PrimeSTAR mutagenesis kit (TAKARA # R045A). mRNA was synthesized using the mMESSAGE mMACHINE T7 Ultra Kit (Life technologies # AM1345). The synthesized mRNA was dissolved in nuclease-free water. The concentration of mRNA was measured by NanoDrop ND-1000 spectrophotometer (NanoDrop Technologies). Aliquots of mRNA were stored at −80° C. until use.
(§1) Mouse somatic cell nuclear transfer was carried out as described previously (Matoba et al., 2014). Briefly, both recipient MII oocytes and donor cumulus cells were collected from adult BDF1 female mice through superovulation by injecting 7.5 IU of pregnant mare serum gonadotropin (PMSG; Millipore #367222) and 7.5 IU of human chorionic gonadotropin (hCG; Millipore #230734). Fifteen to seventeen hours after the hCG injection, cumulus-oocyte complexes (COCs) were collected from the oviducts and treated briefly with Hepes-buffered potassium simplex-optimized medium (KSOM) containing 300 U/ml bovine testicular hyaluronidase (Calbiochem #385931) to obtain dissociated MII oocytes and cumulus cells. Isolated MII oocytes were enucleated in Hepes-buffered KSOM medium containing 7.5 jig/ml of cytochalasin B (Calbiochem #250233) by using Piezo-driven micromanipulator (Primetech # PMM-150FU). The nuclei of donor cumulus cells were injected into the enucleated oocytes. After 1 h incubation in KSOM, reconstructed SCNT oocytes were activated by incubating in Ca-free KSOM containing 2.5 mM SrCl2 and 5 jig/ml cytochalasin B for 1 h, and further cultured in KSOM with cytochalasin B for 4 h. Activated SCNT embryos were washed 5 hrs after the onset of SrCl2 treatment (hours post activation, hpa) and cultured in KSOM in a humidified atmosphere with 5% CO2 at 37.8° C. The SCNT embryos were injected with ˜10 pl of water (control), 1500 ng/μ1 wild-type or mutant (H188A) human KDM4A mRNA at 5-6 hpa by using a Piezo-driven micromanipulator. Preimplantation developmental rates were analyzed by Student's T-test.

H3K9me3 = assay: Immunostaining of H3K9me3 in 1-cell mouse SCNT embryos after mRNA injection; format: cell-based; conditions: 1-cell stage, 5 hours after mRNA injection
Method: as §1, with “Activated SCNT embryos were washed 5 hrs after the onset of SrCl2 treatment (hours post activation, hpa) and cultured in KSOM in a humidified atmosphere with 5% CO2 at 37.8° C. The SCNT embryos were injected with ˜10 pl of water (control), 1500 ng/μ1 wild-type or mutant (H188A) human KDM4A mRNA at 5-6 hpa by using a Piezo-driven micromanipulator.” left out, “T-test. […]” for “T-test.”

KDM4A mRNA: in vitro transcribed mRNA of full length human KDM4A/JHDM3A cDNA, an H3K9me3 demethylase (SEQ ID NO: 1)
% 4-cell per 2-cell ± SD (mouse SCNT embryos): 43.3 ± 7.6% | % cleaved per 1-cell ± SD (mouse SCNT embryos): 93.7 ± 2.7% | % morula per 2-cell ± SD (mouse SCNT embryos): 35.5 ± 13.5% | % blast per 2-cell ± SD (mouse SCNT embryos): 90.3% and 90% | % blast per 2-cell ± SD (mouse SCNT embryos; listed as KDM4A): 23.7 ± 11.6% | % blast per 2-cell ± SD (mouse SCNT embryos; listed as KDM4A WT): 90.3 ± 0.3 % | % 4-cell per 2-cell ± SD (mouse SCNT embryos; listed as KDM4A WT): 96.8 ± 2.7 % | % cleaved per 1-cell ± SD (mouse SCNT embryos; listed as KDM4A WT): 97.0 ± 5.2% | % morula per 2-cell ± SD (mouse SCNT embryos; listed as KDM4A WT): 92.5 ± 3.6 % | H3K9me3 levels in the nucleus of mouse SCNT embryos (H3K9me3): greatly reduced H3K9me3 levels
